Results as given in the supplement of paper PMC10307832.

How the values were obtained:
Experiment in all cases: relative viability (nuclei count vs DMSO), 5 days (fraction); higher = more cells survive
Pictilisib + Palbociclib = compound: CS(=O)(=O)N1CCN(Cc2cc3nc(-c4cccc5[nH]ncc45)nc(N4CCOCC4)c3s2)CC1 [Pictilisib] + CC(=O)c1c(C)c2cnc(Nc3ccc(N4CCNCC4)cn3)nc2n(C2CCCC2)c1=O [Palbociclib] (partner 0.5 µM)
How it was run: (§1)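 For relative viability, nuclei counts in treated wells were divided by those in vehicle wells. Lung cancer cell lines had been pin-tool dosed in 1536-well plates the day after seeding and cultured for 5 days, then fixed and stained in one step (final 0.05% Triton X-100, 1% formaldehyde, 1 ug/ml Hoechst) and imaged at 4×. Doses were one drug alone or a fixed anchor-drug dose plus five library-drug doses (not always all listed) in √10 steps, and values are duplicate-plate medians.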

Pictilisib + Phenformin = compound: CS(=O)(=O)N1CCN(Cc2cc3nc(-c4cccc5[nH]ncc45)nc(N4CCOCC4)c3s2)CC1 [Pictilisib] + N=C(N)NC(=N)NCCc1ccccc1 [Phenformin] (partner 250 µM)
How it was run: as §1

Pictilisib + Pemetrexed = compound: CS(=O)(=O)N1CCN(Cc2cc3nc(-c4cccc5[nH]ncc45)nc(N4CCOCC4)c3s2)CC1 [Pictilisib] + Nc1nc2[nH]cc(CCc3ccc(C(=O)N[C@@H](CCC(=O)O)C(=O)O)cc3)c2c(=O)[nH]1 [Pemetrexed] (partner 0.2 µM)
How it was run: as §1

Pictilisib + Olaparib = compound: CS(=O)(=O)N1CCN(Cc2cc3nc(-c4cccc5[nH]ncc45)nc(N4CCOCC4)c3s2)CC1 [Pictilisib] + O=C(c1cc(Cc2n[nH]c(=O)c3ccccc23)ccc1F)N1CCN(C(=O)C2CC2)CC1 [Olaparib] (partner 8 µM)
How it was run: as §1

MK-2206 + Crizotinib = compound: NC1(c2ccc(-c3nc4ccn5c(=O)[nH]nc5c4cc3-c3ccccc3)cc2)CCC1 [MK-2206] + C[C@@H](Oc1cc(-c2cnn(C3CCNCC3)c2)cnc1N)c1c(Cl)ccc(F)c1Cl [Crizotinib] (partner 1 µM)
How it was run: as §1

Cell Line	relative viability (Pictilisib + Palbociclib; first compound 0.02 µM)	relative viability (Pictilisib + Palbociclib; first compound 0.06325 µM)	relative viability (Pictilisib + Palbociclib; first compound 0.6325 µM)	relative viability (Pictilisib + Palbociclib; first compound 2 µM)	relative viability (Pictilisib + Phenformin; first compound 0.02 µM)	relative viability (Pictilisib + Phenformin; first compound 0.06325 µM)	relative viability (Pictilisib + Phenformin; first compound 0.6325 µM)	relative viability (Pictilisib + Phenformin; first compound 2 µM)	relative viability (Pictilisib + Pemetrexed; first compound 0.02 µM)	relative viability (Pictilisib + Pemetrexed; first compound 0.06325 µM)	relative viability (Pictilisib + Pemetrexed; first compound 0.6325 µM)	relative viability (Pictilisib + Pemetrexed; first compound 2 µM)	relative viability (Pictilisib + Olaparib; first compound 0.02 µM)	relative viability (Pictilisib + Olaparib; first compound 0.06325 µM)	relative viability (Pictilisib + Olaparib; first compound 0.6325 µM)	relative viability (Pictilisib + Olaparib; first compound 2 µM)	relative viability (MK-2206 + Crizotinib; first compound 0.01 µM)	relative viability (MK-2206 + Crizotinib; first compound 0.03162 µM)	relative viability (MK-2206 + Crizotinib; first compound 0.3162 µM)	relative viability (MK-2206 + Crizotinib; first compound 1 µM)
NCI-H2126	0.357	0.317	0.32	0.341	0.49	0.501	0.38	0.31	0.692	0.661	0.518	0.379	0.911	0.894	0.713	0.496	1.01	1.02	1.01	0.979
LU99A	0.426	0.288	0.316	0.177	0.911	0.869	0.791	0.532	0.198	0.179	0.19	0.164	0.273	0.301	0.254	0.216	0.609	0.647	0.524	0.535
NCI-H23	0.505	0.439	0.351	0.186	0.84	0.82	0.664	0.523	0.618	0.757	0.5	0.374	0.298	0.389	0.355	0.198	0.563	0.619	0.53	0.543
PC-14	0.488	0.564	0.507	0.334	0.858	0.719	0.621	0.386	0.137	0.133	0.136	0.0862	0.385	0.39	0.442	0.341	0.826	0.928	0.914	0.879
HCC-44	1.02	1.01	0.955	0.977	0.215	0.151	0.154	0.0888	0.655	0.642	0.695	0.673	1.02	1.06	1.12	0.915	0.826	0.787	0.756	0.818
A-427	0.512	0.511	0.504	0.508	0.345	0.357	0.27	0.212	0.955	0.984	0.969	0.803	0.721	0.712	0.71	0.552	0.896	0.824	0.742	0.893
RERF-LC-KJ	1.02	1.15	0.815	0.711	0.409	0.35	0.343	0.307	0.459	0.478	0.448	0.404	0.925	0.834	0.784	0.578	0.808	0.806	0.871	0.842
NCI-H647	0.365	0.419	0.254	0.144	0.667	0.698	0.291	0.227	0.172	0.175	0.143	0.141	0.661	0.659	0.411	0.219	1.03	1.06	1.04	0.897
NCI-H1734	0.303	0.338	0.281	0.192	0.427	0.362	0.271	0.197	0.39	0.417	0.39	0.355	0.582	0.581	0.477	0.215	0.772	0.725	0.468	0.521
SK-LU-1	0.401	0.382	0.307	0.31	0.648	0.509	0.393	0.308	0.967	1.07	0.835	0.624	0.451	0.492	0.409	0.367	0.941	0.912	0.964	0.877
COR-L23	0.335	0.349	0.273	0.208	0.428	0.471	0.522	0.424	0.187	0.185	0.199	0.19	0.316	0.319	0.337	0.327	0.69	0.691	0.796	0.693
EMC-BAC-2	0.502	0.498	0.401	0.337	0.604	0.515	0.432	0.335	0.45	0.451	0.424	0.41	0.513	0.52	0.407	0.334	0.714	0.729	0.781	0.745
NCI-H1355	0.405	0.356	0.293	0.217	0.493	0.467	0.393	0.248	1.02	1.05	1.08	0.478	0.718	0.727	0.651	0.413	1.07	1.03	1.08	0.914
NCI-H1792	0.62	0.693	0.512	0.34	0.343	0.257	0.128	0.124	0.924	0.954	0.553	0.177	0.386	0.294	0.261	0.0715	0.968	1	0.999	0.944
NCI-H1944	0.322	0.235	0.226	0.183	0.206	0.184	0.137	0.141	0.649	0.487	0.469	0.287	0.395	0.381	0.368	0.232	1.16	1.16	1.02	1.07
HOP-62	0.526	0.423	0.399	0.287	0.681	0.701	0.717	0.598	0.319	0.271	0.267	0.271	0.389	0.556	0.512	0.446	1.04	0.945	0.903	1.03
NCI-H2009	0.149	0.175	0.165	0.125	0.501	0.504	0.438	0.365	1.04	1.12	1.17	0.875	0.743	0.634	0.592	0.422	1.04	1.05	1.12	1.04
